Drawing on DBAASP, this text covers MIC for four molecules.

For orientation: MIC means the lowest concentration that inhibits growth of the organism.

What all share (assay): ≥ marks a high value that may be exact or a test limit, other limits are often not marked, values filed in µg/mL are converted to µM
The subject of assay [1] is Candida albicans 3153A.
For assay [2], the system named is Escherichia coli O157:H7.
Assay [3] concerns Staphylococcus aureus 1056.
Assay [4] has as its system Carnobacterium maltaromaticum UI49.
The test system of assay [5] is Lacticaseibacillus casei NCDO 2713.
In assay [6] the test system is Lacticaseibacillus casei subsp. casei NCDO 161.
Assay [7] concerns Lactiplantibacillus plantarum UI50.
In assay [8] the test system is Latilactobacillus curvatus 89.
Assay [9] concerns Latilactobacillus sakei 706.
Assay [10] relates to Latilactobacillus sakei NCDO 2714.
Assay [11] relates to Pediococcus acidilactici CH.
The test system of assay [12] is Pediococcus pentosaceus NCDO 990.
Assay [13] relates to Pediococcus pentosaceus Pac1.0.
Assay [14] has as its system Weissella viridescens NCDO 1655.
Assay [15] deals with Acinetobacter baumannii ATCC BAA-747.
Assay [16] relates to Bacillus subtilis IFO 3134.
Assay [17] relates to Enterobacter cloacae BCRC 10401.
Assay [18] has as its system Enterococcus faecium ATCC 700221.
In assay [19] the test system is Escherichia coli ATCC 25922.
The subject of assay [20] is Escherichia coli BCRC 10675.
Assay [21] deals with Escherichia coli IFO 12734.
Assay [22] concerns Klebsiella aerogenes BCRC 10370.
Assay [23] has as its system Klebsiella oxytoca BCRC 13985.
Assay [24] relates to Klebsiella pneumoniae ATCC 700603.
Assay [25] deals with Lactococcus garvieae.
The subject of assay [26] is Listeria monocytogenes BCRC 14845.
Assay [27] relates to Pseudomonas aeruginosa ATCC 27583.
Assay [28] has as its system Pseudomonas aeruginosa BCRC 10944.
The test system of assay [29] is Pseudomonas aeruginosa IFO 12582.
Assay [30] has as its system Staphylococcus aureus ATCC 43300.
The test system of assay [31] is Staphylococcus aureus BCRC 10780.
Assay [32] has as its system Staphylococcus aureus BCRC 10781.
Assay [33] has as its system Staphylococcus aureus IFO 12732.
Assay [34] deals with Staphylococcus xylosus BCRC 12930.
The test system of assay [35] is Streptococcus equinus BCRC 14729.
The subject of assay [36] is Streptococcus iniae.
Assay [37] has as its system Vibrio alginolyticus BCRC 12829.
In assay [38] the test system is Vibrio alginolyticus.
The subject of assay [39] is Vibrio anguillarum serotype O1.
Assay [40] relates to Vibrio harveyi.
Assay [41] concerns Vibrio parahaemolyticus BCRC 10806.
Assay [42] deals with Vibrio parahaemolyticus.
In assay [43] the test system is Yersinia enterocolitica BCRC 13999.
The test system of assay [44] is Pseudomonas aeruginosa.
Assay [45] relates to Staphylococcus aureus ATCC 6538P.
Assay [46] concerns Staphylococcus aureus KO-4.
Assay [47] relates to Trichophyton mentagrophytes IFO 5466.
Assay [48] relates to Trypanosoma brucei brucei GUT Tat3.1.

The structures appear in SMILES notation. In brackets after ≈: the same amount, converted by molar mass. Several values for one entry are separate records, joined by “and”; a condition that tells them apart may be missing. Equal entries are not always repeated.

For the molecule `CC[C@H](C)[C@H](NC(=O)[C@H](CC(N)=O)NC(=O)[C@H](CCCCN)NC(=O)[C@@H]1CSSC[C@@H]2NC(=O)[C@H](CCCCN)NC(=O)[C@H](CC(C)C)NC(=O)[C@H](Cc3ccccc3)NC(=O)CNC(=O)[C@@H]3CSSC[C@H](NC(=O)[C@H](CCCCN)NC(=O)CNC(=O)[C@H](CO)NC(=O)[C@H](C(C)C)NC(=O)[C@H](C(C)C)NC(=O)[C@H](Cc4ccccc4)NC(=O)[C@@H]4CCCN4C(=O)[C@H](Cc4ccccc4)NC(=O)[C@H](CO)NC2=O)C(=O)N[C@@H](CO)C(=O)N[C@@H](CCCN=C(N)N)C(=O)N[C@@H](Cc2ccccc2)C(=O)N[C@@H](Cc2ccccc2)C(=O)N[C@@H](Cc2ccccc2)C(=O)N[C@@H](CSSC[C@H](NC(=O)[C@H](CCC(=O)O)NC(=O)[C@H](C)NC(=O)[C@H](CCCCN)NC(=O)[C@H](CC(N)=O)NC(=O)CNC(=O)[C@@H]2CCCN2C(=O)[C@H](C)N)C(=O)N[C@@H](CCC(=O)O)C(=O)N[C@@H](CCCN=C(N)N)C(=O)N[C@@H](CCC(=O)O)C(=O)N[C@@H](CCCCN)C(=O)NCC(=O)N[C@@H](Cc2ccc(O)cc2)C(=O)N3)C(=O)N1)C(=O)N[C@@H](Cc1c[nH]c2ccccc12)C(=O)O` [APGNKAECEREKGYCGFLKCSFPFVVSGKCSRFFFCCKNIW], the MIC in assay [1] was determined as 1.32 µM (≈ 6.19 µg/mL); in assay [2] it was 0.205 µM (≈ 0.959 µg/mL); in assay [3], 0.267 µM (≈ 1.25 µg/mL).
Consider `CC[C@H](C)[C@H](NC(=O)[C@H](C)NC(=O)[C@H](CCCNC(=N)N)NC(=O)CNC(=O)[C@H](C)NC(=O)[C@H](CCC(=O)O)NC(=O)CNC(=O)[C@H](CC(=O)O)NC(=O)[C@H](Cc1ccc(O)cc1)NC(=O)[C@H](Cc1ccccc1)NC(=O)CNC(=O)[C@H](CCCCN)NC(=O)[C@H](CCCNC(=N)N)NC(=O)[C@H](CC(C)C)NC(=O)[C@H](CO)NC(=O)[C@H](CO)NC(=O)[C@H](Cc1c[nH]c2ccccc12)NC(=O)[C@H](Cc1ccccc1)NC(=O)[C@H](CC(N)=O)NC(=O)[C@H](CCCCN)NC(=O)[C@H](Cc1c[nH]c2ccccc12)NC(=O)[C@H](C)NC(=O)CN)C(=O)N[C@@H](CCCNC(=N)N)C(=O)N[C@@H](CCCNC(=N)N)C(=O)O` [GAWKNFWSSLRKGFYDGEAGRAIRR], for which the MIC in assay [4], in assay [5], in assay [6], in assay [7], in assay [8] and in assay [9] was 0.4 µM (≈ 1.17 µg/mL) each time. Further, the MIC in [10] came to 0.05 µM (≈ 0.146 µg/mL); in assay [11] it was 0.4 µM (≈ 1.17 µg/mL); in assay [12] it was 0.4 µM (≈ 1.17 µg/mL); in assay [13] it was 0.05 µM (≈ 0.146 µg/mL); in assay [14], 0.005 µM (≈ 0.0146 µg/mL).
Consider `CC[C@H](C)[C@H](NC(=O)CN)C(=O)NCC(=O)N[C@@H](CCCCN)C(=O)N[C@@H](Cc1ccccc1)C(=O)N[C@@H](CC(C)C)C(=O)N[C@@H](Cc1cnc[nH]1)C(=O)N[C@@H](CO)C(=O)N[C@@H](C)C(=O)N[C@@H](CCCCN)C(=O)N[C@@H](CCCCN)C(=O)N[C@@H](Cc1c[nH]c2ccccc12)C(=O)NCC(=O)N[C@@H](CCCCN)C(=O)N[C@@H](C)C(=O)N[C@@H](Cc1ccccc1)C(=O)N[C@H](C(=O)NCC(=O)N[C@@H](CCC(=O)O)C(=O)N[C@H](C(=O)N[C@@H](CCSC)C(=O)N[C@@H](CC(N)=O)C(=O)N[C@@H](CO)C(N)=O)[C@@H](C)CC)C(C)C` [GIGKFLHSAKKWGKAFVGEIMNS], for which the MIC in assay [15] was found to be 8 µM (≈ 20 µg/mL); in [16], 9.98 µM (≈ 25 µg/mL); in assay [17], 12.8 µM (≈ 32 µg/mL); in assay [18] it was 16 µM (≈ 40.1 µg/mL); in assay [19], 8 µM (≈ 20 µg/mL); in assay [20], 25.5 µM (≈ 64 µg/mL). The MIC in [21] was 4.79 µM (≈ 12 µg/mL); in [22] it was at least 51.1 µM; in assay [23] it was 25.5 µM (≈ 64 µg/mL); in assay [24], 64 µM (≈ 160 µg/mL); in [25] it was 12.8 µM (≈ 32 µg/mL); in assay [26], at least 51.1 µM. The MIC is at least 32 µM in assay [27]; 25.5 µM (≈ 64 µg/mL) in assay [28]; 9.98 µM (≈ 25 µg/mL) in assay [29]; over 128 µM in [30]; at least 51.1 µM in assay [31]; at least 51.1 µM in assay [32]. Besides, the minimal inhibitory concentration (MIC) in [33] was 9.98 µM (≈ 25 µg/mL); in assay [34], at least 51.1 µM; in assay [35], at least 51.1 µM; in assay [36], at least 51.1 µM; in assay [37], at least 51.1 µM; in assay [38], at least 51.1 µM. For the same molecule, the MIC in [39] is 3.19 µM (≈ 8 µg/mL); in [40] it was at least 51.1 µM; in [41], at least 51.1 µM; in assay [42] it was 1.6 µM (≈ 4 µg/mL); in assay [43], at least 51.1 µM.
For the molecule `CC[C@H](C)[C@H](NC(=O)[C@H](CCCN=C(N)N)NC(=O)[C@H](CC(C)C)NC(=O)[C@H](CCCN=C(N)N)NC(=O)[C@H](CC(C)C)NC(=O)[C@@H](N)CCCN=C(N)N)C(=O)NCC(=O)N[C@@H](CCCN=C(N)N)C(=O)N[C@@H](CCCN=C(N)N)C(N)=O` [RLRLRIGRR], the minimal inhibitory concentration (MIC) is 669 µM (≈ 799 µg/mL) in assay [44]; 0.837 µM and 1.67 µM in [45]; at least 502 µM in assay [46]; at least 41.8 µM in assay [47]; at least 500 µM in [48].
